Assay results from paper PMC11078216, “Discovery of potent and selective activity-based probes (ABPs) for the deubiquitinating enzyme USP30” (RSC Chemical Biology, 2024).

Target: T1, UCHL1 (Homo sapiens, UniProt P09936)
T1 sequence (P09936 1-223): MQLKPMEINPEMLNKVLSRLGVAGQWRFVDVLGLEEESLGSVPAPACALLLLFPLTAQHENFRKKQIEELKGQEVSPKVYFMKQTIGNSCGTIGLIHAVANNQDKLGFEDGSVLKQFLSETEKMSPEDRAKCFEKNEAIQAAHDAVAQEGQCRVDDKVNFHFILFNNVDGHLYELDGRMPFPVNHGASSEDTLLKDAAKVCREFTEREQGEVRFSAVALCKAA
Assay: ABPP chemical proteomics (LC-MS/MS) in HEK293T cells
Assay type: cell-based
Parameters: endogenous in cells; host or cells: HEK293T
Details: IMP-2587 labelling vs DMSO, 30 nM, 10 min, HEK293T (Table S2, Fig.5a)
Procedure: To explore the selectivity of IMP-2587 and IMP-2586 across the whole proteome, we performed quantitative activity-based protein profiling (ABPP) in HEK293T cells following treatment with IMP-2587 or IMP-2586 (Fig. 3a). After ABP incubation, cells were lysed, and probe-labelled proteins were ligated to biotinylated capture reagents.[27] […] USP30 was outcompeted by corresponding parent inhibitors for each ABP (Fig. 5b and d and Tables S3 and S5, ESI ^†), confirming the high potency and rapid engagement of IMP-2587 and IMP-2586 in cells. […] DESI1 and DESI2 are small ubiquitin-related modifier (SUMO) proteases,[3,29–32] and IMP-2587 and IMP-2586 may offer a starting point for future development of DESI ABPs. […]
The lysate samples (10-20 μg) were mixed with 4× Laemmli sample loading buffer (250 mM Tris -HCl pH 6.8, 30% (v/v) glycerol, 10% (w/v) SDS, 0.05% (w/v) bromophenol blue) supplemented with 20% v/v β-mercaptoethanol (BME) and boiled for 10 min at 95 °C. […] Gel were imaged on a Typhoon imager (GE Healthcare; λEx 532 nm, λEm 575 nm for TAMRA. For protein loading quantification, gels were stained with Coomassie blue staining solution overnight, rinsed with water and imaged on an ImageQuant™ LAS 4000 imager (GE Healthcare). f) Neutravidin biotin enrichment (Affinity pull-down) […]

C#Cc1cccc(-c2cc(NC(=O)CC3CCN(C#N)C3)on2)c1 (stereo not shown) [IMP-2587]
Difference (log2 fold change of enrichment): 0.76
